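Values below derive from 48-hour exposures of cells grown in 96-well plates, with endpoints linearly interpolated between the two concentrations bracketing the appropriate inhibition level. TGI: total growth inhibition.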
Assays:
Assay in all cases: NCI tumour cell line growth inhibition, 48 h
DLD-1 colon = tested on: DLD-1 colon
DMS 273 small cell lung = tested on: DMS 273 small cell lung
KM20L2 colon = tested on: KM20L2 colon
SNB-78 CNS = tested on: SNB-78 CNS
XF 498 CNS = tested on: XF 498 CNS
BT-549 breast = tested on: BT-549 breast
MDA-N = tested on: MDA-N
PC-3 prostate = tested on: PC-3 prostate
RXF-631 renal = tested on: RXF-631 renal
P388 leukemia = tested on: P388 leukemia
P388/ADR leukemia = tested on: P388/ADR leukemia
SN12K1 renal = tested on: SN12K1 renal

With Cc1cccc(C)c1N1C(=O)C(=O)C(c2nc3ccccc3s2)/C(=N/NC(=O)NN)C1=O (centres undefined) the TGI (DLD-1 colon) was > 100 µM, the TGI (DMS 273 small cell lung) was > 100 µM and the TGI (KM20L2 colon) was > 100 µM. For the same compound, the TGI (SNB-78 CNS) was > 100 µM and the TGI (XF 498 CNS) was > 100 µM.
Work on CCCCCCCCCCCC1CC(=O)NCCCN(C)CCCCN(C)CCCN1C (centres undefined) yielded a TGI (DLD-1 colon) of 3 µM, a TGI (DMS 273 small cell lung) of 2.61 µM and a TGI (KM20L2 colon) of 3.01 µM. For the same compound, the TGI (SNB-78 CNS) was 3.27 µM and the TGI (XF 498 CNS) was 3.08 µM.
With O=C1[C@H]2ON(c3ccccc3)C(c3ccco3)[C@H]2C(=O)N1c1ccc(Cc2ccc(N3C(=O)[C@@H]4ON(c5ccccc5)C(c5ccco5)[C@@H]4C3=O)cc2)cc1 (some centres undefined) the TGI (DLD-1 colon) was > 100 µM, the TGI (DMS 273 small cell lung) was > 100 µM and the TGI (KM20L2 colon) was > 100 µM. For the same compound, the TGI (SNB-78 CNS) was > 100 µM and the TGI (XF 498 CNS) was > 100 µM.
CC(C)(C)NCC(COc1ccc([N+](=O)[O-])cc1)OP(c1ccccc1)c1ccccc1 (centres undefined) was tested, and the TGI (DLD-1 colon) was > 100 µM, the TGI (DMS 273 small cell lung) was > 100 µM and the TGI (KM20L2 colon) was > 100 µM. For the same compound, the TGI (SNB-78 CNS) was > 100 µM and the TGI (XF 498 CNS) was 67.3 µM.
With COc1ccc2[nH]c(-c3ccc(O)cc3)cc(=O)c2c1 the TGI (BT-549 breast) was > 100 µM, the TGI (DLD-1 colon) was > 100 µM and the TGI (DMS 273 small cell lung) was 0.717 µM. The TGI (KM20L2 colon) was > 18.6 µM, the TGI (MDA-N) was > 100 µM and the TGI (PC-3 prostate) was > 100 µM. The TGI (RXF-631 renal) was > 100 µM, the TGI (SNB-78 CNS) was > 100 µM and the TGI (XF 498 CNS) was 13.7 µM.
With O=C1C2=C(CCC2)Nc2cccc3ncn1c23 the TGI (DLD-1 colon) was > 100 µM, the TGI (DMS 273 small cell lung) was > 100 µM and the TGI (KM20L2 colon) was > 100 µM. The TGI (SNB-78 CNS) was > 100 µM and the TGI (XF 498 CNS) was > 100 µM.
For N#C/C(=C1\SC(N=Nc2ccc(Cl)cc2)C(=O)N1c1ccccc1)c1nc2ccccc2[nH]1 (centres undefined), the TGI (DLD-1 colon) was > 100 µM, the TGI (DMS 273 small cell lung) was > 100 µM and the TGI (KM20L2 colon) was > 100 µM. For the same compound, the TGI (SNB-78 CNS) was > 100 µM and the TGI (XF 498 CNS) was 84.8 µM.
With CCOC(OC1=C(C#N)CCCC1)C(CC)[Se]c1ccccc1 (centres undefined) the TGI (DLD-1 colon) was 34.4 µM, the TGI (DMS 273 small cell lung) was 24.9 µM and the TGI (KM20L2 colon) was 62.1 µM. For the same compound, the TGI (RXF-631 renal) was 26.2 µM, the TGI (SNB-78 CNS) was 89.7 µM and the TGI (XF 498 CNS) was 46.5 µM.
With Cc1ccccc1/C=C/C(=O)c1ccccc1 the TGI (DLD-1 colon) was 54.9 µM, the TGI (DMS 273 small cell lung) was 61.2 µM and the TGI (KM20L2 colon) was 33.6 µM. For the same compound, the TGI (RXF-631 renal) was 42.5 µM, the TGI (SNB-78 CNS) was 39.2 µM and the TGI (XF 498 CNS) was 30.8 µM.
Cc1c2ccncc2c(C)c2c1[nH]c1ccc(O)c(OCC(F)(F)F)c12 gave a TGI (DLD-1 colon) of 18.2 µM, a TGI (DMS 273 small cell lung) of 4.87 µM and a TGI (KM20L2 colon) of 27.3 µM. It also gave a TGI (SNB-78 CNS) of 18.2 µM and a TGI (XF 498 CNS) of 22.9 µM.
In the case of COC(=O)C1C(=O)N(CCc2c[nH]c3ccccc23)C[C@@H]2CCC(=O)C[C@H]12 (some centres undefined), the TGI (DLD-1 colon) is reported as > 100 µM, the TGI (DMS 273 small cell lung) is reported as > 100 µM and the TGI (RXF-631 renal) is reported as > 100 µM. The TGI (SNB-78 CNS) was > 100 µM and the TGI (XF 498 CNS) was > 100 µM.
Cc1ccc(C)c(N2C(=O)C(=O)C(c3nc4ccccc4s3)C(=Nc3cccc4c(=O)[nH][nH]c(=O)c34)C2=O)c1 (centres undefined) was tested, and the TGI (DLD-1 colon) was > 100 µM, the TGI (DMS 273 small cell lung) was > 100 µM and the TGI (KM20L2 colon) was > 100 µM. The TGI (RXF-631 renal) was > 100 µM.
For O=c1[nH]c2cc([N+](=O)[O-])ccc2nc1/C(=N\Nc1ccccc1)C(O)c1ccc2c(c1)OCO2 (centres undefined), the TGI (DLD-1 colon) was > 100 µM, the TGI (DMS 273 small cell lung) was > 100 µM and the TGI (KM20L2 colon) was > 100 µM. For the same compound, the TGI (RXF-631 renal) was > 100 µM and the TGI (SNB-78 CNS) was > 100 µM.
With Cc1cccc(N(CC(=O)O)S(=O)(=O)c2ccccc2)c1 the TGI (DLD-1 colon) was > 100 µM, the TGI (DMS 273 small cell lung) was > 100 µM and the TGI (KM20L2 colon) was > 100 µM. For the same compound, the TGI (RXF-631 renal) was > 100 µM and the TGI (XF 498 CNS) was > 100 µM.
For C=CCNC(=O)N(CCC)CCCC(NC(C)=O)C(=O)NCc1ccccc1 (centres undefined), the TGI (DMS 273 small cell lung) was > 100 µM, the TGI (KM20L2 colon) was > 100 µM and the TGI (RXF-631 renal) was > 100 µM. The TGI (XF 498 CNS) was > 100 µM.
O=S1CSSC1 was tested, and the TGI (DLD-1 colon) was 43.1 µM, the TGI (DMS 273 small cell lung) was 25.1 µM and the TGI (KM20L2 colon) was 52.5 µM. For the same compound, the TGI (RXF-631 renal) was 29.8 µM, the TGI (SNB-78 CNS) was 62 µM and the TGI (XF 498 CNS) was 50.1 µM.
With COc1cc(CNc2nc3ccc(C(F)(F)F)cc3nc2-c2ccccc2)cc(OC)c1OC the TGI (DLD-1 colon) was > 100 µM, the TGI (DMS 273 small cell lung) was > 100 µM and the TGI (KM20L2 colon) was > 100 µM. For the same compound, the TGI (RXF-631 renal) was > 100 µM, the TGI (SNB-78 CNS) was > 100 µM and the TGI (XF 498 CNS) was > 100 µM.
In the case of CCOC(=O)C1(Cc2ccc3ccccc3c2)CCCCC(=O)N1 (centres undefined), the TGI (DLD-1 colon) is reported as > 100 µM, the TGI (DMS 273 small cell lung) is reported as 36.9 µM and the TGI (KM20L2 colon) is reported as > 100 µM. The TGI (SNB-78 CNS) was > 100 µM and the TGI (XF 498 CNS) was > 100 µM.
CCCCCCCCCCCCCCCCCCOCC(COCCOCC[N+]1(CCCCCC(=O)[O-])CCCC1)Oc1ncccn1 (centres undefined) gave a TGI (BT-549 breast) of 21.4 µM, a TGI (DLD-1 colon) of 14 µM and a TGI (DMS 273 small cell lung) of 2.26 µM. The TGI (KM20L2 colon) was 14.5 µM, the TGI (MDA-N) was 23.2 µM and the TGI (P388 leukemia) was 1.02 µM. It also gave a TGI (P388/ADR leukemia) of 15.9 µM, a TGI (PC-3 prostate) of 15 µM and a TGI (SN12K1 renal) of 17.7 µM. It also gave a TGI (SNB-78 CNS) of 4.52 µM and a TGI (XF 498 CNS) of 9.46 µM.
In the case of CC1=NN(C(=O)c2ccncc2)C(=O)C1N=Nc1ccc(F)cc1 (centres undefined), the TGI (DLD-1 colon) is reported as > 100 µM, the TGI (DMS 273 small cell lung) is reported as > 100 µM and the TGI (KM20L2 colon) is reported as > 100 µM. The TGI (SNB-78 CNS) was > 100 µM and the TGI (XF 498 CNS) was > 100 µM.
N#Cc1c(-c2ccco2)cc(-c2ccccc2)[nH]c1=O was tested, and the TGI (DLD-1 colon) was > 100 µM, the TGI (DMS 273 small cell lung) was > 100 µM and the TGI (KM20L2 colon) was > 100 µM. For the same compound, the TGI (RXF-631 renal) was > 100 µM and the TGI (SNB-78 CNS) was > 100 µM.
With C=C1C(=O)C23C(O)C1CC[C@H]2C12CCCC(C)(COC(C)=O)[C@H]1[C@H](O)[C@]3(O)OC2 (some centres undefined) the TGI (BT-549 breast) was 2.86 µM, the TGI (DLD-1 colon) was 1.7 µM and the TGI (DMS 273 small cell lung) was 4.22 µM. For the same compound, the TGI (KM20L2 colon) was 3.01 µM, the TGI (PC-3 prostate) was 3.78 µM and the TGI (SNB-78 CNS) was 2.96 µM. The TGI (XF 498 CNS) was 2.71 µM.
In the case of Cn1c(=O)nc2n(-c3ccc(Cl)c(C(F)(F)F)c3)c3ccccc3nc-2c1=O, the TGI (DLD-1 colon) is reported as > 100 µM, the TGI (DMS 273 small cell lung) is reported as > 100 µM and the TGI (KM20L2 colon) is reported as 73.9 µM. The TGI (SNB-78 CNS) was > 100 µM and the TGI (XF 498 CNS) was > 78.1 µM.
Compound C[C@]12C/C(=C/O)C(=O)C(O)=C1CC[C@@H]1C2CC[C@@]2(C)C1CC[C@@H]2O (some centres undefined) has a TGI (DMS 273 small cell lung) of 51.1 µM, a TGI (KM20L2 colon) of 54.6 µM and a TGI (RXF-631 renal) of 48.8 µM. It also gave a TGI (SNB-78 CNS) of 47.3 µM and a TGI (XF 498 CNS) of 33 µM.
For CCCCCCC(C)CCCCCCCCCCC(=O)O (centres undefined), the TGI (DLD-1 colon) was > 100 µM, the TGI (DMS 273 small cell lung) was > 100 µM and the TGI (KM20L2 colon) was > 100 µM. The TGI (RXF-631 renal) was > 100 µM and the TGI (XF 498 CNS) was > 100 µM.
For CN(C)C(=S)Nc1nnc(Nc2ccccc2)s1, the TGI (DLD-1 colon) was > 100 µM, the TGI (DMS 273 small cell lung) was > 100 µM and the TGI (KM20L2 colon) was > 100 µM. The TGI (RXF-631 renal) was > 100 µM and the TGI (SNB-78 CNS) was > 100 µM.

From PubChem BioAssay (NCI)
